Assay results published in patent EP4800004A1, “ARYLALKYLAMINE COMPOUND, AND PREPARATION METHOD THEREFOR AND USE THEREOF” (Renhe Yikang Group Co., Ltd., priority 2024, dated 2025).

How the values were obtained:
[1] = target: T1, human CaSR (Homo sapiens, UniProt P41180); test: In vitro CaSR conformational (allosteric) activation, intracellular Ca2+ change in hCaSR-CHO cells (Fluo-4 NW, FLIPR); type: cell-based; settings: change in intracellular Ca2+ fluorescence intensity
T1 construct: expressed in transfected cells
T1 sequence (P41180 20-1078): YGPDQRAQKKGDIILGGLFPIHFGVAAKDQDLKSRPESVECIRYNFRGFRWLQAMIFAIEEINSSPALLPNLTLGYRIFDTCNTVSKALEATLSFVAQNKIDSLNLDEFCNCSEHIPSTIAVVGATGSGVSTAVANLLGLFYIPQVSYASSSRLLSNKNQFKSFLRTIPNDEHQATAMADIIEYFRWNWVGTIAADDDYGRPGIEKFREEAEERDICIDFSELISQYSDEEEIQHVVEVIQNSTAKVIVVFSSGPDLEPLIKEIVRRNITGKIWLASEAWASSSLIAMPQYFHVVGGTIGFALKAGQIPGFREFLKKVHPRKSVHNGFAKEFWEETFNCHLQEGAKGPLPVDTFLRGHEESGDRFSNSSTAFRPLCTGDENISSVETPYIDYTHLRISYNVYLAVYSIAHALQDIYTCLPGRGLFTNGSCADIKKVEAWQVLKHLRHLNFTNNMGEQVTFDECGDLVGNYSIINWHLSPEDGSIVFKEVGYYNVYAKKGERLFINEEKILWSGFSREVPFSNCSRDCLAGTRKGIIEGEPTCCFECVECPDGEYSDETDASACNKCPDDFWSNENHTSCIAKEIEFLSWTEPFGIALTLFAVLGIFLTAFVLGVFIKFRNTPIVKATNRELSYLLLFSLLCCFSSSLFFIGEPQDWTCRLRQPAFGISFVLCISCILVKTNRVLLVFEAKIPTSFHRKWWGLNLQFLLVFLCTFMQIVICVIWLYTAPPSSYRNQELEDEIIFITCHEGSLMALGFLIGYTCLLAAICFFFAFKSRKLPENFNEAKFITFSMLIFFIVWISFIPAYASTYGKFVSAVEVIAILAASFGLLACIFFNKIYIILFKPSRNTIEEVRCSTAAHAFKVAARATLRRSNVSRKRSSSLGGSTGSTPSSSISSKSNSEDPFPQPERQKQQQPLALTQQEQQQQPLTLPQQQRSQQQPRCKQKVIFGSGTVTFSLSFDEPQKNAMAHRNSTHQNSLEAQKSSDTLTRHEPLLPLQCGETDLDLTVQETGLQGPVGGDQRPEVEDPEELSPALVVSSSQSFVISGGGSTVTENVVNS
Protocol: The CaSR is a member of family C of G protein-coupled receptors (GPCR). Upon activation by extracellular Ca^2+ or specific compounds, CaSR triggers an increase in intracellular Ca^2+ concentration. To evaluate the effect of compounds on the allosteric activation of CaSR, a CHO cell line stably transfected with human CaSR (hCaSR-CHO) was utilized. Changes in intracellular Ca^2+ concentration were measured as a key indicator to assess the conformational activation of CaSR.
• 1. Preparation Before Plate Spreading: Twelve hours prior to cell spreading, a 384-well cell culture plate was coated with 0.1 mg/mL polylysine. • 2. Cell Spreading: Digested hCaSR-CHO cells were resuspended in complete medium, counted using a cell counter, and adjusted to a density of 5 × 10^5 cells/mL. A volume of 25 µL of cell suspension was inoculated into each well. After inoculation, the cells were incubated at 37 °C in a 5% CO2 incubator for 18 h. • 3. Preparation of Compound Test Solution: The test compounds were diluted to the required concentrations (10 µM, 2 µM, 400 nM, 80 nM, 16 nM, 3.2 nM, and 0.64 nM) and added to a 384-well spiked plate. Since the cell culture plate already contained 25 µL of Fluo-4 NW assay reagent and the instrument was set to deliver 20 µL of the system, the compound concentrations in the spiked plate were 2.25 times the actual assay concentrations. For example, […]. • 4. Preparation of Assay Reagents: According to the instructions of the Fluo-4 NW Calcium Assay Kit (Thermo, F36206), 1 mL of assay buffer was added to Component B to prepare a 250 mM probenecid solution. 100 µL of the probenecid solution was added to 10 mL of assay buffer and mixed thoroughly. Component A was added to the mixture to prepare a 1X dye loading solution. • 5. Fluorescent Dye Addition: The complete culture medium was discarded, and 25 µL of the 1X dye loading solution was added to the 384-well plate using a Multidrop automatic dispenser. The plate was incubated at 37 °C for 30 min in the dark, then transferred to room temperature for an additional 30 min. The plate was transferred to the FLIPER Tetra instrument (Molecular Devices). • 6. Data Acquisition: After adding 20 µL of the compound test solution, the excitation wavelength was set to 470-495 nm, and the emission was detected at 515-575 nm. The instrument's quality control board was used to ensure no errors before initiating detection. The detection duration was 660 seconds, and the raw data were exported at the end of the reading. • 7. Data Processing: The change in fluorescence intensity, representing intracellular calcium signals, was calculated by subtracting the minimum fluorescence value (average of 14-21 seconds) from the maximum fluorescence value (average of 40-80 seconds) after compound addition. Using GraphPad Prism 8.0, the EC50 values of individual compounds were determined by plotting the compound concentration on the x-axis and the change in fluorescence intensity on the y-axis.

[2] = tested on: parathyroid hormone (PTH); test: In vivo inhibition of blood PTH concentration in five-sixths nephrectomy hyperparathyroidism model rats (ELISA); settings: PTH reduction at 1 hour post-administration compared with baseline PTH concentration at 0 hour; single dose by oral gavage; male SD rats, five-sixths nephrectomy plus special diet
Text: Male SD rat models of hyperparathyroidism were constructed by five-sixths nephrectomy plus a special diet. Blood parathyroid hormone (PTH) level was used as the endpoint. ELISA was applied to determine the changes in plasma PTH concentration following compound treatment, thereby assessing the in vivo activity of the compound.
• 1. Model Construction: Specific pathogen-free (SPF)-grade male SD rats aged 7-8 weeks were used. The rats were acclimatized with normal feed for 1 week. Two-thirds of the left kidney was removed, and the rats were allowed to recover with normal feed for 1 week. Subsequently, the right kidney was removed, and the rats were allowed to recover with normal feed for an additional week. The rats were then fed a special diet (0.5% calcium and 1.2% total phosphorus) for 2 weeks. • 2. Detection and Grouping: Approximately 300 µL of blood was collected from the tail vein into a coagulation-promoting tube, left at room temperature for 30 minutes, and centrifuged at 12,000 rpm for 3 minutes to obtain serum samples. The concentration of intact PTH (1-84) in the serum was detected using the MicroVue Intact PTH EIA-96 Test (Quidel, catalog No. 60-2500). The rats were grouped based on their PTH concentration levels, ensuring that the mean PTH concentration in each group was approximately the same. • 3. Administration and Activity Testing: A single dose of the compound was administered by oral gavage. Blood samples were collected before and after administration, and serum was obtained using the method described in step 2. PTH levels were measured using ELISA.

[3] = Rat liver microsome stability test; type: in vitro ADME; settings: rat liver microsomes, PBS pH 7.4, 37 °C, maximum incubation time 60 minutes
Protocol: Rat liver microsomes at a defined concentration, testosterone (positive control), tolbutamide (internal standard), the test compounds, and PBS (pH 7.4) were incubated at 37 °C. The reaction was quenched with methanol at 0, 5, 10, 20, 30, and 60 min, respectively. The samples were pretreated and analyzed using LC-MS. Data processing involved plotting the ratio of the peak area of the test compound to that of the internal standard (y-axis) against time (x-axis). The half-life (t1/2) was calculated from the data. Table 3. Stability data of compounds in rat liver microsomes.

[4] = Pharmacokinetic study in SD rats; type: in vivo; settings: Sprague-Dawley, rat, plasma, male SD rats, single dose via oral gavage; for bioavailability: relative to Evocalcet (100)
Protocol: Animal Information: Male Sprague-Dawley (SD) rats, aged 7-8 weeks, were used. Each group consisted of 3-5 rats.
Dosing Information: The rats were fasted for more than 12 hours prior to administration. A single dose was administered via oral gavage.
Blood Sampling Time Points: Blood samples were collected from the tail vein before administration and at 0.25, 0.5, 1, 2, 4, 6, 8, and 24 hours post-administration. A volume of 100 µL of blood was collected at each time point.
Sample Processing and Storage: The blood samples were transferred into 1.5 mL microcentrifuge tubes, with 50 µL per tube (two tubes per sample). Centrifugation was completed within 2 hours. Whole blood samples were kept on ice prior to centrifugation. Centrifugation was performed at 4000 rpm, 2-8°C, for 10 minutes. After collecting the supernatant, it was stored at -80°C or below if not analyzed immediately.
Column: An InfinityLab Poroshell 120 SB-C18 column (2.1 × 100 mm, 2.7 µm) was used. Column Temperature: The temperature was maintained at 30°C. Flow Rate: The flow rate was set at 0.3 mL/min. Run Time: The total run time was 9.5 minutes. Post-run Time: A post-run time of 2 minutes was applied. Injection Volume: An injection volume of 2 µL was used. Mobile Phase: A mixture of methanol and 0.1% formic acid was employed as the mobile phase. Gradient Elution: Gradient elution was performed according to the table below.
Blood Sample Processing: 50 µL of plasma sample was aliquoted, and 25 µL of internal standard solution was added. The mixture was vortexed for 30 seconds. Then, 175 µL of methanol was added to precipitate proteins, and the mixture was vortexed again. The samples were centrifuged at 12,000 rpm for 10 minutes. Subsequently, 100 µL of the supernatant was collected and mixed with 300 µL of water. The final supernatant was injected for analysis.

| Structure (SMILES) | EC50 [1] | The reduction efficiency (%) [2] | half-life [3] | bioavailability [4] | AUC(0-inf) [4] | Cmax [4] | Tmax [4] | half-life [4] |
| --- | --- | --- | --- | --- | --- | --- | --- | --- |
| Cc1cc(CC(=O)O)ccc1N1CC[C@H](N[C@H](C)c2cccc3ccccc23)C1 [Compound 3, 2-(3-methyl-4-((S)-3-(((R)-1-(naphthalen-1-yl)ethyl)amino)pyrrolidin-1-yl)phenyl)acetic acid] | 20.7 nM | 93% | > 1 h | 144% | 36600 ± 1970 ng·h/mL | 3770 ± 584 ng/mL | 0.55 ± 0.27 h | 5.17 ± 0.38 h |
| C[C@@H](N[C@H]1CCN(c2cc(F)c(CC(=O)O)c(F)c2)C1)c1cccc2ccccc12 [Compound 5, 2-(2,6-difluoro-4-((S)-3-(((R)-1-(naphthalen-1-yl)ethyl)amino)pyrrolidin-1-yl)phenyl)acetic acid] | 39.8 nM | 81% | > 1 h |  |  |  |  |  |
| COc1cc(N2CC[C@H](N[C@H](C)c3cccc4ccccc34)C2)ccc1CC(=O)O [Compound 7, 2-(2-methoxy-4-((S)-3-(((R)-1-(naphthalen-1-yl)ethyl)amino)pyrrolidin-1-yl)phenyl)acetic acid] | 55.5 nM |  |  |  |  |  |  |  |
| COc1cc(CC(=O)O)ccc1N1CC[C@H](N[C@H](C)c2cccc3ccccc23)C1 [Compound 6, 2-(3-methoxy-4-((S)-3-(((R)-1-(naphthalen-1-yl)ethyl)amino)pyrrolidin-1-yl)phenyl)acetic acid] | 42.5 nM |  |  |  |  |  |  |  |
| C[C@@H](N[C@H]1CCN(c2ccc(CC(=O)O)cc2F)C1)c1cccc2ccccc12 [Compound 2, 2-(3-fluoro-4-((S)-3-(((R)-1-(naphthalen-1-yl)ethyl)amino)pyrrolidin-1-yl)phenyl)acetic acid] | 27.1 nM | 91% | > 1 h | 136% | 34700 ± 2710 ng·h/mL | 3550 ± 283 ng/mL | 0.65 ± 0.34 h | 5.91 ± 0.21 h |
| C[C@@H](N[C@H]1CCN(c2ccc(CC(=O)O)cc2)C1)c1cccc2ccccc12 [Evocalcet, reference compound] | 67.6 nM |  | > 1 h | 100% | 25400 ± 7360 ng·h/mL | 2520 ± 212 ng/mL | 1.15 ± 1.6 h | 4.83 ± 0.39 h |
| C[C@@H](N[C@H]1CCN(c2ccc(CC(=O)O)c(F)c2)C1)c1cccc2ccccc12 [Compound 1, 2-(2-fluoro-4-((S)-3-(((R)-1-(naphthalen-1-yl)ethyl)amino)pyrrolidin-1-yl)phenyl)acetic acid] | 39.7 nM |  |  |  |  |  |  |  |
| Cc1cc(N2CC[C@H](N[C@H](C)c3cccc4ccccc34)C2)ccc1CC(=O)O [Compound 4, 2-(2-methyl-4-((S)-3-(((R)-1-(naphthalen-1-yl)ethyl)amino)pyrrolidin-1-yl)phenyl)acetic acid] | 52 nM |  |  |  |  |  |  |  |
